This assay deals with T1, human PRS protein (Homo sapiens, UniProt P07814).
T1 construct: to construct His-Avi-hEPRS (998-1512) expression plasmid; His tag (N); Avi tag (N); TEV cleavage site (ENLYFQ/GS, encoded by forward primer hEPRS-TEV-NheF) (N); made in house; host or cells: E. coli BL21(DE3)
T1 sequence (P07814 998-1512): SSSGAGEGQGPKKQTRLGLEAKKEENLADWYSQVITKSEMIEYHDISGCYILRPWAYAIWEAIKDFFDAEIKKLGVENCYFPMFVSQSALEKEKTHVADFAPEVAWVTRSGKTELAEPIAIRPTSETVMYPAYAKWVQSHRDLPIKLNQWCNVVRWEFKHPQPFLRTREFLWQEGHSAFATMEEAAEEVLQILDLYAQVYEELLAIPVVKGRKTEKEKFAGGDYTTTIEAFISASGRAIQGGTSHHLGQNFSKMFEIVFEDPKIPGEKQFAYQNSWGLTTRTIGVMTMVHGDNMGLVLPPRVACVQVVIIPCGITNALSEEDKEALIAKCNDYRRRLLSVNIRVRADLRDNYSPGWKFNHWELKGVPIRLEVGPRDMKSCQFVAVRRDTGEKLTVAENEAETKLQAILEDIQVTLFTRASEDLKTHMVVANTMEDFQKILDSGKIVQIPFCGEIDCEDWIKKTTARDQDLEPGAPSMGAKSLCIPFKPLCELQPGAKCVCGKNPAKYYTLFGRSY
In words: PRS inhibitory activity (ATP/[32P]pyrophosphate exchange enzyme reaction). The format is biochemical. As to conditions: 300 nM test compound; recombinant human PRS (EPRS 998-1512); read-out: inhibitory rate (%) of PRS. On the procedure:
The PRS inhibitory activity of the compounds of the present invention was evaluated by the following method.
An expression plasmid of Catalytic Domain of human EPRS was obtained by PCR using human skeletal muscle cDNA Library (Takara Bio Inc.) as a template and 2 kinds of Primers 5′-[…]-3′ (hEPRS-TEV-NheF) (SEQ ID NO: 1) and 5′-[…]-3′ (hEPRS-St-Not-R) (SEQ ID NO: 2). PCR was performed using PrimeStar GXL DNA Polymerase (Takara Bio Inc.) and included (1) 98° C., 1 min, (2) cycles of 98° C., 10 sec, 65° C., 10 sec, 72° C., 1 min, and (3) reaction at 72° C., 1 min. This was cleaved with Nhe I and Not I (Takara Bio Inc.) and inserted using Ligation High (TOYOBO CO., LTD.) into the Nhe I/Not I site of pET21a (Novagen) with His-Avitag inserted thereinto. This was introduced into ECOS JM109 (NIPPON GENE CO., LTD.) to construct His-Avi-hEPRS (998-1512) expression plasmid.
Recombinant human PRS protein was prepared by transforming the His-Avi-hEPRS (998-1512) expression plasmid prepared above into ECOS Competent E. coli BL21(DE3) (NIPPON GENE CO., LTD.). Escherichia coli obtained by transformation was inoculated into 300 mL of LB medium (1% peptone, 0.5% yeast extract, 0.5% sodium chloride, 0.01% ampicillin) and cultured at 30° C. for 16 hr. The obtained culture medium was transferred into a jar culture tank charged with 6 L of the main fermentation medium (0.3% potassium dihydrogen phosphate, 0.6% disodium hydrogen phosphate, 0.1% ammonium chloride, 0.05% sodium chloride, 0.024% magnesium sulfate, 0.02% NEWPOL LB-625, 1.5% sorbitol, 1.5% casamino acid, 0.5% yeast extract, 0.01% ampicillin) and culturing was started at 37° C., quantity of airflow 5 L/min, stirring rotating speed 400 rpm. At the time point when the turbidity of the culture medium reached about 550 Klett units, the culture temperature was lowered to 16° C., isopropyl-β-D-thiogalactopyranoside (IPTG) was added to the final concentration 0.1 mM, and culturing was performed for another 16 hr to induce expression of human PRS. After completion of culturing, the culture medium was centrifuged at 5,000 rpm for 10 min. The obtained human PRS expressing Escherichia coli was suspended in a buffer containing 50 mM Tris-HCl (pH 8.0), 150 mM NaCl, 1 mM DTT, 5 U/ml Benzonase, 20 mM Imidazole and sonicated using Sonifier (BRANSON). The homogenate was centrifuged (33,000×G, 60 min, Beckman Coulter), the obtained supernatant was subjected to adsorption by passage through Ni-NTA Superflow (QIAGEN) column equilibrated in advance with 50 mM Tris-HCl (pH 8.0), 300 mM NaCl, 1 mM DTT, and elution was performed with a buffer containing 50 mM Tris-HCl (pH 8.0), 300 mM NaCl, 1 mM DTT, 250 mM Imidazole. Furthermore, gel filtration was performed using […] equilibrated in advance with a buffer containing 50 mM Tris-HCl (pH 8.0), 150 mM NaCl, 1 mM DTT, 10% glycerol to give purified human PRS protein. The protein concentration was measured using BCA Protein Assay Kit (PIERCE) and BSA as the standard.
A test compound was dissolved in 5 μL of an assay buffer (50 mM Tris-HCl (pH 7.5), 20 mM KCl, 1 mM DTT, 0.01% Tween 20) and incubated for 60 min with 5 μL of 40 nM human PRS protein dissolved in the assay buffer containing 40 mM MgCl2. An enzyme reaction of the human PRS protein was started by adding 10 μL of a substrate solution containing 300 μM ATP, 160 μM L-Proline, 400 μM pyrophosphate, [^32P]pyrophosphate (PerkinElmer, Waltham, Mass.) prepared to 1 MBq/mL. After incubation at room temperature for 30 min, the reaction was discontinued by adding 50 μL of discontinuation/washing solution (1M HCl, 200 mM sodium pyrophosphate) to the reaction mixture. The reaction solution was transferred to a filter plate (Merck Millipore, Billerica, Mass.) previously added with 200 μL of charcoal solution (0.5% HCl solution containing 10% charcoal (w/v)). […]

With `N#C[C@@]1(C2CC2)CCN(c2ccnc(NC(=O)Cc3cccc(Cl)c3)c2)C1=O` [Example 1, 2-(3-chlorophenyl)-N-(4-((3S)-3-cyano-3-cyclopropyl-2-oxopyrrolidin-1-yl)pyridin-2-yl)acetamide], the inhibition at 0.3 µM is 84%. As to `N#C[C@@]1(C2CC2)CCN(c2ccnc(NC(=O)Cc3ccccc3)c2)C1=O` [Example 2, N-(4-((3S)-3-cyano-3-cyclopropyl-2-oxopyrrolidin-1-yl)pyridin-2-yl)-2-phenylacetamide], the inhibition at 0.3 µM was 85%. Regarding `N#C[C@@]1(C2CC2)CCN(c2ccnc(NC(=O)Cc3cccc4ccccc34)c2)C1=O` [Example 3, N-(4-((3S)-3-cyano-3-cyclopropyl-2-oxopyrrolidin-1-yl)pyridin-2-yl)-2-(1-naphthyl)acetamide], the inhibition at 0.3 µM turned out to be 93%. To `N#C[C@@]1(C2CC2)CCN(c2ccnc(NC(=O)Cc3ccccc3Cl)c2)C1=O` [Example 5, 2-(2-chlorophenyl)-N-(4-((3S)-3-cyano-3-cyclopropyl-2-oxopyrrolidin-1-yl)pyridin-2-yl)acetamide] belongs 62%. To `N#C[C@@]1(C2CC2)CCN(c2ccnc(NC(=O)Cc3cccc(-c4ccccc4)c3)c2)C1=O` [Example 9, 2-(biphenyl-3-yl)-N-(4-((3S)-3-cyano-3-cyclopropyl-2-oxopyrrolidin-1-yl)pyridin-2-yl)acetamide] belongs 94%.

`COc1cccc(CC(=O)Nc2cc(N3CC[C@@](C#N)(C4CC4)C3=O)ccn2)c1` [Example 10, N-(4-((3S)-3-cyano-3-cyclopropyl-2-oxopyrrolidin-1-yl)pyridin-2-yl)-2-(3-methoxyphenyl)acetamide]: the inhibition at 0.3 µM was 88%. As to `Cc1cccc(CC(=O)Nc2cc(N3CC[C@@](C#N)(C4CC4)C3=O)ccn2)c1` [Example 11, N-(4-((3S)-3-cyano-3-cyclopropyl-2-oxopyrrolidin-1-yl)pyridin-2-yl)-2-(3-methylphenyl)acetamide], the inhibition at 0.3 µM is 85%. Take `N#C[C@@]1(C2CC2)CCN(c2ccnc(NC(=O)Cc3cccc(F)c3)c2)C1=O` [Example 13, N-(4-((3S)-3-cyano-3-cyclopropyl-2-oxopyrrolidin-1-yl)pyridin-2-yl)-2-(3-fluorophenyl)acetamide]: the inhibition at 0.3 µM was 89%. Next, `N#C[C@@]1(C2CC2)CCN(c2ccnc(NC(=O)Cc3ccccc3F)c2)C1=O` [Example 14, N-(4-((3S)-3-cyano-3-cyclopropyl-2-oxopyrrolidin-1-yl)pyridin-2-yl)-2-(2-fluorophenyl)acetamide]: 70%. Consider `N#C[C@@]1(C2CC2)CCN(c2ccnc(NC(=O)Cc3ccsc3)c2)C1=O` [Example 15, N-(4-((3S)-3-cyano-3-cyclopropyl-2-oxopyrrolidin-1-yl)pyridin-2-yl)-2-(3-thienyl)acetamide], for which the inhibition at 0.3 µM came out at 84%. For the compound `N#C[C@@]1(C2CC2)CCN(c2ccnc(NC(=O)Cc3cccs3)c2)C1=O` [Example 16, N-(4-((3S)-3-cyano-3-cyclopropyl-2-oxopyrrolidin-1-yl)pyridin-2-yl)-2-(2-thienyl)acetamide], the inhibition at 0.3 µM turned out to be 88%. Turning to `N#C[C@@]1(C2CC2)CCN(c2ccnc(NC(=O)Cc3ccc(Cl)s3)c2)C1=O` [Example 17, 2-(5-chloro-2-thienyl)-N-(4-((3S)-3-cyano-3-cyclopropyl-2-oxopyrrolidin-1-yl)pyridin-2-yl)acetamide], the inhibition at 0.3 µM turned out to be 83%.

Take `N#C[C@@]1(C2CC2)CCN(c2ccnc(NC(=O)Cc3cccc(Br)c3)c2)C1=O` [Example 21, 2-(3-bromophenyl)-N-(4-((3S)-3-cyano-3-cyclopropyl-2-oxopyrrolidin-1-yl)pyridin-2-yl)acetamide]: the inhibition at 0.3 µM came out at 89%. To `C=CC[C@]1(C#N)CCN(c2ccnc(NC(=O)Cc3cccc(-c4cnn(C)c4)c3)c2)C1=O` [Example 22, N-(4-((3R)-3-allyl-3-cyano-2-oxopyrrolidin-1-yl)pyridin-2-yl)-2-(3-(1-methyl-1H-pyrazol-4-yl)phenyl)acetamide] belongs 87%; to `C=CC[C@]1(C#N)CCN(c2ccnc(NC(=O)Cc3cccc(-c4ccsc4)c3)c2)C1=O` [Example 24, N-(4-((3R)-3-allyl-3-cyano-2-oxopyrrolidin-1-yl)pyridin-2-yl)-2-(3-(3-thienyl)phenyl)acetamide], 71%; to `C=CC[C@]1(C#N)CCN(c2ccnc(NC(=O)Cc3cccc(-c4ccncc4)c3)c2)C1=O` [Example 25, N-(4-((3R)-3-allyl-3-cyano-2-oxopyrrolidin-1-yl)pyridin-2-yl)-2-(3-(pyridin-4-yl)phenyl)acetamide], 61%. Regarding `N#C[C@@]1(C2CC2)CCN(c2ccnc(NC(=O)Cc3csc4ccccc34)c2)C1=O` [Example 28, 2-(1-benzothiophen-3-yl)-N-(4-((3S)-3-cyano-3-cyclopropyl-2-oxopyrrolidin-1-yl)pyridin-2-yl)acetamide], the inhibition at 0.3 µM was 94%. For `N#CC1(C2CCC2)CCN(c2ccnc(NC(=O)Cc3cccc4ccccc34)c2)C1=O` (stereo not drawn) [Example 33, N-(4-(3-cyano-3-cyclobutyl-2-oxopyrrolidin-1-yl)pyridin-2-yl)-2-(1-naphthyl)acetamide], the inhibition at 0.3 µM was 80%.

With `N#C[C@@]1(C2CC2)CCN(c2ccnc(NC(=O)Cc3cccc(-c4cccnc4)c3)c2)C1=O` [Example 34, N-(4-((3S)-3-cyano-3-cyclopropyl-2-oxopyrrolidin-1-yl)pyridin-2-yl)-2-(3-(pyridin-3-yl)phenyl)acetamide], the inhibition at 0.3 µM was 97%. On to `N#Cc1ccc(-c2cccc(CC(=O)Nc3cc(N4CC[C@@](C#N)(C5CC5)C4=O)ccn3)c2)s1` [Example 36, N-(4-((3S)-3-cyano-3-cyclopropyl-2-oxopyrrolidin-1-yl)pyridin-2-yl)-2-(3-(5-cyano-2-thienyl)phenyl)acetamide], for which the inhibition at 0.3 µM is 96%. As for `Cn1cc(-c2cccc(CC(=O)Nc3cc(N4CCC(C)(C)C4=O)ccn3)c2)cn1` [Example 43, N-(4-(3,3-dimethyl-2-oxopyrrolidin-1-yl)pyridin-2-yl)-2-(3-(1-methyl-1H-pyrazol-4-yl)phenyl)acetamide], the inhibition at 0.3 µM worked out at 88%.

Source of the values: US10800754B2, “Heterocyclic amide compound” (TAKEDA PHARMACEUTICAL COMPANY LIMITED, priority 2016, dated 2020).
